Measurements published in the supplement of paper PMC10307832.

What was measured:
Assay in all cases: relative viability (nuclei count vs DMSO), 5 days (fraction); higher = more cells survive
[1] = compound: C1=CC2=C(C=CC(=C2)C=C3C(=O)NC(=NCC4=CC=CS4)S3)N=C1 [RO-3306] + NC(=O)Nc1cc(-c2cccc(F)c2)sc1C(=O)N[C@H]1CCCNC1 [AZD7762] (partner 0.2 µM)
Method in brief: (§1)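 Medians of duplicate plates are given as relative viability. That measure is the nuclei count in treated wells divided by the count in vehicle wells. Counts were taken on 4× images of lung cancer cell lines in 1536-well plates, 5 days after pin-tool dosing the day after seeding with one drug alone or a fixed anchor-drug dose plus five library-drug doses (not always all listed) in √10 steps.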

[2] = compound: C1=CC2=C(C=CC(=C2)C=C3C(=O)NC(=NCC4=CC=CS4)S3)N=C1 [RO-3306] + C[C@@H](Oc1cc(-c2cnn(C3CCNCC3)c2)cnc1N)c1c(Cl)ccc(F)c1Cl [Crizotinib] (partner 1 µM)
Method in brief: as §1

[3] = compound: O=S(=O)(c1ccccc1)N(CC(F)(F)F)c1ccc(C(O)(C(F)(F)F)C(F)(F)F)cc1 + Cc1cc(Nc2cc(N3CCN(C)CC3)nc(Sc3ccc(NC(=O)C4CC4)cc3)n2)n[nH]1 [Tozasertib] (partner 0.1 µM)
Method in brief: as §1

[4] = compound: C1=CC2=C(C=CC(=C2)C=C3C(=O)NC(=NCC4=CC=CS4)S3)N=C1 [RO-3306] + CC(=O)Nc1cccc(-n2c(=O)n(C3CC3)c(=O)c3c(Nc4ccc(I)cc4F)n(C)c(=O)c(C)c32)c1 [Trametinib] (partner 0.02 µM)
Method in brief: as §1

| Cell Line | relative viability ([1]; first compound 0.01 µM) | relative viability ([1]; first compound 0.03162 µM) | relative viability ([1]; first compound 0.1 µM) | relative viability ([1]; first compound 0.3162 µM) | relative viability ([1]; first compound 1 µM) | relative viability ([2]; first compound 0.01 µM) | relative viability ([2]; first compound 0.03162 µM) | relative viability ([2]; first compound 0.1 µM) | relative viability ([2]; first compound 0.3162 µM) | relative viability ([2]; first compound 1 µM) | relative viability ([3]; first compound 0.8 µM) | relative viability ([3]; first compound 2.53 µM) | relative viability ([3]; first compound 8 µM) | relative viability ([4]; first compound 0.01 µM) | relative viability ([4]; first compound 0.03162 µM) | relative viability ([4]; first compound 0.1 µM) | relative viability ([4]; first compound 0.3162 µM) | relative viability ([4]; first compound 1 µM) |
| --- | --- | --- | --- | --- | --- | --- | --- | --- | --- | --- | --- | --- | --- | --- | --- | --- | --- | --- |
| NCI-H441 | 1.02 | 0.782 | 1.21 | 0.948 | 1.03 | 0.824 | 0.424 | 0.591 | 0.867 | 0.485 | 0.58 | 0.588 | 0.697 | 0.451 | 0.341 | 0.368 | 0.439 | 0.428 |
| HCC-366 | 0.242 | 0.215 | 0.254 | 0.347 | 0.417 | 0.566 | 0.611 | 0.486 | 0.603 | 0.522 | 0.133 | 0.0684 | 0.0773 | 0.378 | 0.326 | 0.374 | 0.381 | 0.313 |
| NCI-H2085 | 1.04 | 0.95 | 0.93 | 0.921 | 1.07 | 0.677 | 0.715 | 0.774 | 0.775 | 0.791 | 0.809 | 0.727 | 0.688 | 0.509 | 0.632 | 0.527 | 0.613 | 0.595 |
| SW 1573 | – | – | – | – | – | 0.879 | 0.62 | 0.771 | 0.865 | 0.606 | 0.182 | 0.17 | 0.215 | 0.636 | 0.428 | 0.539 | 0.604 | 0.573 |
| NCI-H1299 | – | – | – | – | – | 1.02 | 0.943 | 0.998 | 0.988 | 0.991 | – | – | – | – | – | – | – | – |
| H3255 | 0.897 | 0.774 | 0.856 | 0.888 | 0.848 | 0.926 | 0.836 | 0.761 | 0.916 | 0.642 | 0.629 | 0.663 | 0.66 | 0.791 | 0.533 | 0.584 | 0.557 | 0.546 |
| NCI-H2023 | – | – | – | – | – | 0.644 | 0.6 | 0.612 | 0.593 | 0.621 | 0.335 | 0.289 | 0.249 | 0.554 | 0.442 | 0.444 | 0.509 | 0.529 |
| HOP-62 | 0.695 | 0.469 | 0.466 | 0.567 | 0.451 | 1.2 | 1.09 | 0.973 | 1.05 | 0.891 | 0.392 | 0.35 | 0.26 | 0.433 | 0.383 | 0.384 | 0.398 | 0.36 |
| LC-2-ad | 0.86 | 0.842 | 0.826 | 0.823 | 0.647 | 0.404 | 0.416 | 0.397 | 0.425 | 0.368 | 0.496 | 0.492 | 0.474 | 0.961 | 0.848 | 0.945 | 0.908 | 0.852 |
| NCI-H2347 | 1.13 | 0.663 | 0.796 | 0.766 | 0.724 | 0.675 | 0.691 | 0.718 | 0.7 | 0.656 | 0.628 | 0.523 | 0.646 | 0.283 | 0.271 | 0.262 | 0.264 | 0.274 |
| NCI-H1651 | 0.437 | 0.406 | 0.454 | 0.424 | 0.469 | 0.865 | 0.834 | 0.88 | 0.881 | 0.84 | 0.734 | 0.687 | 0.564 | 0.805 | 0.803 | 0.828 | 0.826 | 0.8 |
| COR-L23 | – | – | – | – | – | 0.45 | – | 0.748 | 0.694 | 0.74 | 0.159 | 0.152 | 0.164 | 0.656 | 0.374 | 0.558 | 0.532 | 0.656 |
| ABC-1 | 0.906 | 0.812 | 0.823 | 0.963 | 0.813 | 1.21 | 0.85 | 1.12 | 1.18 | 1.44 | 0.172 | 0.19 | 0.202 | – | – | – | – | – |
| NCI-H1755 | 0.609 | 0.473 | 0.458 | 0.439 | 0.496 | 0.934 | 1.02 | 0.875 | 0.846 | 0.811 | 0.501 | 0.553 | 0.426 | 0.859 | 0.768 | 0.791 | 0.803 | 0.771 |
| NCI-H2170 | 1.11 | 0.865 | 0.938 | 0.939 | 0.907 | 1.34 | 0.758 | 1.15 | 1.24 | 1.13 | 0.784 | 0.616 | 0.629 | 1.18 | 0.792 | 0.886 | 0.96 | 0.958 |
| NCI-H23 | 0.249 | – | 0.21 | 0.303 | 0.227 | 0.493 | 0.304 | 0.462 | 0.56 | 0.425 | 0.315 | 0.307 | 0.331 | 0.344 | – | 0.352 | 0.388 | 0.375 |
| NCI-H1395 | 0.44 | 0.42 | 0.374 | 0.374 | 0.427 | – | – | – | – | – | 0.737 | 0.671 | 0.82 | 1.24 | 0.983 | 0.886 | 1.1 | 0.916 |
| LOU-NH91 | 0.76 | 0.721 | 0.746 | 0.721 | 0.667 | 0.938 | 0.728 | 0.739 | 0.706 | 0.685 | 0.735 | 0.701 | 0.678 | 0.829 | 0.735 | 0.75 | 0.76 | 0.742 |
| NCI-H647 | 0.519 | 0.339 | 0.325 | 0.515 | 0.31 | 1.42 | 0.869 | 1.02 | 1.06 | 1.15 | 0.425 | 0.325 | 0.167 | 0.538 | 0.38 | 0.457 | 0.486 | 0.533 |
| NCI-H522 | 0.914 | 0.734 | 0.914 | 0.89 | 0.843 | – | – | – | – | – | 0.567 | 0.488 | 0.615 | 0.652 | 0.521 | 0.664 | 0.712 | 0.666 |
